The values that follow come from patent US20210246115A1 (Bioimics AB, priority 2017, published 2021).

Values after ≈ are worked out from the molar mass of the structure shown. Counter-ions that a name gives are not always drawn. Like-named read-outs stand apart in the source and are kept apart here.

Assay [1] concerns Staphylococcus aureus subsp. aureus (ATCC29213). As to the kind of experiment: MIC, broth microdilution (CLSI), Staphylococcus aureus ATCC29213. Type of assay: cell-based. The note with it: Staphylococcus aureus. On the technique in general: Broth dilution looks for growth in wells or tubes with falling amounts of substance.
The subject of assay [2] is Escherichia coli (ATCC25922). The experiment in a line: MIC, broth microdilution (CLSI), Escherichia coli. The note with it: Escherichia coli, ATCC25922, read-out: E. coli ATCC 25922 MIC, Table XIII.
Method: Initial minimal inhibitory concentration (MIC) tests were made on two bacterial strains: • Escherichia coli (ATCC25922) • Staphylococcus aureus (ATCC25923).
MIC values were determined using the standard broth microdilution procedure based on the guidelines by the Clinical and Laboratory Standards Institute (CLSI). Briefly, the compounds were dissolved in DMSO to 10 mM. They were diluted in cation-adjusted Mueller-Hinton broth (CAMHB) to four times the highest concentration tested. A serial two-fold dilution in CAMHB was done in microdilution plates. The inoculum of bacterial strain to be tested was prepared by making a suspension of colonies from an 18 to 24 hours old plate in CAMHB. The inoculum was diluted so that, after inoculation, each well contained approximately 5×10^5 CFU/mL. To a volume of 50 μl compound in CA 3 an equal volume of inoculum was added. The tray was sealed in a plastic bag and incubated at 35° C. for 16 to 20 hours. To aid in the detection of growth the dye resazurin was added to a final concentration 0.001% and incubated at room temperature for 1 h. Reduction of resazurin, and therefore bacterial growth, was seen as a change from blue to pink.
The mark [3] stands for this setting: ATCC29213, read-out: S. aureus ATCC 29213 MIC, Table XIII.
The mark [4] stands for this setting: ATCC29213, Table XIII, read-out: S. aureus ATCC 29213 MIC.

As a reminder, the MIC is the lowest concentration found to suppress growth.

As for `Cc1cccc(C(CCNC2CCNCC2)c2cn(C3CCNCC3)c3ccccc23)c1` (stereo not drawn) [Compound 317, N-(3-(1-(piperidin-4-yl)-1H-indol-3-yl)-3-(m-tolyl)propyl)piperidin-4-amine hydrochloride salt], the MIC is 64 µg/mL in assay [1] (setting [3]) and more than 128 µg/mL in assay [2].

In the case of `Cc1cccc(C(CCNCCCN)c2cn(CC3CCOCC3)c3ccc(C#N)cc23)c1` (stereo not drawn) [Compound 318, 3-(3-((3-aminopropyl)amino)-1-(m-tolyl)propyl)-1-((tetrahydro-2H-pyran-4-yl)methyl)-1H-indole-5-carbonitrile hydrochloride salt], the MIC is 64 µg/mL in assay [1] (setting [3]) and more than 128 µg/mL in assay [2].

For `NC1CCC(NCCC(c2cccnc2)c2cn(CC3CCCCC3)c3ccccc23)CC1` (stereo not drawn) [Compound 319, N1-(3-(1-(cyclohexylmethyl)-1H-indol-3-yl)-3-(pyridin-3-yl)propyl) cyclohexane-1,4-diamine hydrochloride salt], the MIC is 32 µg/mL in assay [1] (setting [3]) and 64 µg/mL in assay [2].

Turning to `Cl.Cl.c1cncc(C(CCNC2CCNCC2)c2cn(CC3CCCCC3)c3ccccc23)c1` (stereo not drawn) [Compound 320, N-(3-(1-(cyclohexylmethyl)-1H-indol-3-yl)-3-(pyridin-3-yl)propyl) piperidin-4-amine hydrochloride salt], the MIC in assay [1] (setting [4]) and in assay [2] was 128 µg/mL throughout.

Turning to `Cl.Cl.NCCCNCCC(c1cccnc1)c1cn(CC2CCCCC2)c2ccccc12` (stereo not drawn) [Compound 321, N1-(3-(1-(cyclohexylmethyl)-1H-indol-3-yl)-3-(pyridin-3-yl)propyl)propane-1,3-diamine hydrochloride salt], the values for the MIC in assay [1] (setting [4]) and in assay [2] were 32 µg/mL and 64 µg/mL, respectively.

Take `NC1CCC(NCCC(c2cccnc2)c2cn(C3CC4CCC3C4)c3ccccc23)CC1` (stereo not drawn) [Compound 324, N1-(3-(1-(bicyclo[2.2.1]heptan-2-yl)-1H-indol-3-yl)-3-(pyridin-3-yl)propyl)cyclohexane-1,4-diamine hydrochloride salt]: the figures for the MIC in assay [1] (setting [3]) and in assay [2] were 32 µg/mL and 64 µg/mL, respectively.

`c1cncc(C(CCNC2CCNCC2)c2cn(C3CC4CCC3C4)c3ccccc23)c1` (stereo not drawn) [Compound 325, hydrochloride salt]: the MIC in assay [1] (setting [3]) and in assay [2] was 64 µg/mL throughout.

For the compound `Cc1cccc(C(CCNC2CCNCC2)c2cn(CC3CCNCC3)c3ccc(C#N)cc23)c1` (stereo not drawn) [Compound 326, 3-(3-(piperidin-4-ylamino)-1-(m-tolyl)propyl)-1-(piperidin-4-ylmethyl)-1H-indole-5-carbonitrile hydrochloride salt], the MIC worked out at 32 µg/mL in assay [1] (setting [3]) and 128 µg/mL in assay [2].

With `Cc1cccc(C(CCNCCCN)c2cn(CC3CCNCC3)c3ccc(C#N)cc23)c1` (stereo not drawn) [Compound 327, 3-(3-((3-aminopropyl)amino)-1-(m-tolyl)propyl)-1-(piperidin-4-ylmethyl)-1H-indole-5-carbonitrile hydrochloride salt], the MIC in assay [1] (setting [3]) was 32 µg/mL; in assay [2], more than 128 µg/mL.

As to `Cl.Cl.NCCCNCCC(c1cccnc1)c1cn(C2CC3CCC2C3)c2ccccc12` (stereo not drawn) [Compound 328, N1-(3-(1-(bicyclo[2.2.1]heptan-2-yl)-1H-indol-3-yl)-3-(pyridin-3-yl)propyl)propane-1,3-diamine hydrochloride salt], the MIC was 32 µg/mL in assay [1] (setting [4]) and 64 µg/mL in assay [2].

In the case of `Cl.Cl.c1cncc(C(CCNC2CCNCC2)c2cn(C3CCCCC3)c3ccccc23)c1` (stereo not drawn) [Compound 329, N-(3-(1-cyclohexyl-1H-indol-3-yl)-3-(pyridin-3-yl)propyl)piperidin-4-amine hydrochloride salt], the figures for the minimum inhibitory concentration (MIC) in assay [1] (setting [4]) and in assay [2] were 32 µg/mL and 64 µg/mL, respectively.

Take `Cl.Cl.NC1CCC(NCCC(c2cccnc2)c2cn(C3CCCCC3)c3ccccc23)CC1` (stereo not drawn) [Compound 330, N1-(3-(1-cyclohexyl-1H-indol-3-yl)-3-(pyridin-3-yl)propyl)cyclohexane-1,4-diamine hydrochloride salt]: the MIC in assay [1] (setting [4]) was 64 µg/mL; in assay [2], more than 128 µg/mL.

For the compound `Cl.Cl.NCCCNCCC(c1cccnc1)c1cn(C2CCCCC2)c2ccccc12` (stereo not drawn) [Compound 331, N1-(3-(1-cyclohexyl-1H-indol-3-yl)-3-(pyridin-3-yl)propyl)propane-1,3-diamine hydrochloride salt], the MIC in assay [1] (setting [4]) came to 32 µg/mL; in assay [2] it was 128 µg/mL.

Regarding `Cl.Cl.c1ccc2c(c1)c(C(CCNC1CCNCC1)c1ccncc1)cn2C1CCCCC1` (stereo not drawn) [Compound 335, N-(3-(1-cyclohexyl-1H-indol-3-yl)-3-(pyridin-4-yl)propyl)piperidin-4-amine hydrochloride salt], the MIC in assay [1] (setting [4]) and in assay [2] was 64 µg/mL each time.

As for `N[C@H]1CC[C@H](NCCC(c2ccncc2)c2cn(C3CC4CCC3C4)c3ccccc23)CC1` (stereo partly drawn) [Compound 336, (1R,4R)-N1-(3-(1-(bicyclo[2.2.1]heptan-2-yl)-1H-indol-3-yl)-3-(pyridin-4-yl)propyl)cyclohexane-1,4-diamine hydrochloride salt], the minimum inhibitory concentration (MIC) stood at 64 µg/mL in assay [1] (setting [3]) and 128 µg/mL in assay [2].

As for `Cl.Cl.c1ccc2c(c1)c(C(CCNC1CCNCC1)c1ccncc1)cn2C1CC2CCC1C2` (stereo not drawn) [Compound 337, N-(3-(1-(bicyclo[2.2.1]heptan-2-yl)-1H-indol-3-yl)-3-(pyridin-4-yl)propyl)piperidin-4-amine hydrochloride salt], the results for the MIC in assay [1] (setting [4]) and in assay [2] were 32 µg/mL and 64 µg/mL, respectively.

For `Cl.Cl.NCCCNCCC(c1ccncc1)c1cn(C2CC3CCC2C3)c2ccccc12` (stereo not drawn) [Compound 338, N1-(3-(1-(bicyclo[2.2.1]heptan-2-yl)-1H-indol-3-yl)-3-(pyridin-4-yl)propyl)propane-1,3-diamine hydrochloride salt], the MIC was determined as 64 µg/mL in assay [1] (setting [4]) and 128 µg/mL in assay [2].

For the compound `Cl.Cl.NCCCNCCC(c1ccncc1)c1cn(C2CCCCC2)c2ccccc12` (stereo not drawn) [Compound 339, N1-(3-(1-cyclohexyl-1H-indol-3-yl)-3-(pyridin-4-yl)propyl)propane-1,3-diamine hydrochloride salt], the figures for the MIC in assay [1] (setting [4]) and in assay [2] were 32 µg/mL and 128 µg/mL, respectively.

As for `Cl.Cl.N[C@H]1CC[C@H](NCCC(c2ccncc2)c2cn(C3CCCCC3)c3ccccc23)CC1` (stereo partly drawn) [Compound 340, (1r,4r)-N1-(3-(1-cyclohexyl-1H-indol-3-yl)-3-(pyridin-4-yl)propyl) cyclohexane-1,4-diamine hydrochloride salt], the results for the minimal inhibitory concentration (MIC) in assay [1] (setting [4]) and in assay [2] were 64 µg/mL and 128 µg/mL, respectively.

`Cc1ccccc1C(CCNCCCN)c1cn(C2CCCC2)c2ccccc12.Cl.Cl` (stereo not drawn) [Compound 342, N1-(3-(1-cyclopentyl-1H-indol-3-yl)-3-(o-tolyl)propyl)propane-1,3-diamine hydrochloride salt]: the MIC amounted to 16 µg/mL in assay [1] (setting [4]) and 8 µg/mL in assay [2].

Turning to `Cc1cccc(C(CCNCCCN)c2cn(CC3CCCCC3)c3ccccc23)c1.Cl.Cl` (stereo not drawn) [Compound 346, N1-(3-(1-(cyclohexylmethyl)-1H-indol-3-yl)-3-(m-tolyl)propyl)propane-1,3-diamine hydrochloride salt], the MIC in assay [1] (setting [4]) and in assay [2] was 8 µg/mL throughout.

`Cc1cccc(C(CCNCCN)c2cn(C3CCCCC3)c3ccccc23)c1.Cl.Cl` (stereo not drawn) [Compound 347, N1-(3-(1-cyclohexyl-1H-indol-3-yl)-3-(m-tolyl)propyl)ethane-1,2-diamine hydrochloride salt]: the minimum inhibitory concentration (MIC) in assay [1] (setting [4]) was 8 µg/mL; in assay [2] it was 16 µg/mL.

Regarding `Cc1cccc(C(CCNCCCCN)c2cn(C3CCCCC3)c3ccccc23)c1.Cl.Cl` (stereo not drawn) [Compound 350, N1-(3-(1-cyclohexyl-1H-indol-3-yl)-3-(m-tolyl)propyl)butane-1,4-diamine salt], the MIC in assay [1] (setting [4]) and in assay [2] was 8 µg/mL throughout.

In the case of `Cc1cccc(C(CCN)c2cn(C3CCCCC3)c3ccccc23)c1.Cl` (stereo not drawn) [Compound 352, 3-(1-cyclohexyl-1H-indol-3-yl)-3-(m-tolyl)propan-1-amine hydrochloride salt], the results for the MIC in assay [1] (setting [4]) and in assay [2] were 8 µg/mL and more than 128 µg/mL, respectively.

Take `CC(=O)N1CCC(N(CCC(c2cccc(C)c2)c2cn(C3CCCCC3)c3ccccc23)C(C)=O)CC1` (stereo not drawn) [Compound 354, N-(1-acetylpiperidin-4-yl)-N-(3-(1-cyclohexyl-1H-indol-3-yl)-3-(m-tolyl)propyl)acetamide salt]: the MIC was 128 µg/mL in assay [1] (setting [4]) and more than 128 µg/mL in assay [2].

On to `Cl.Cl.NCCCNCCCc1cn(C2CCCCC2)c2ccc(Br)cc12` [Compound 359, N1-(3-(5-bromo-1-cyclohexyl-1H-indol-3-yl)propyl)propane-1,3-diamine hydrochloride salt], for which the MIC in assay [1] (setting [4]) and in assay [2] was 16 µg/mL each time.

For the compound `Cc1cccc(C(CCN(C#N)C2CCC(NC(N)=O)CC2)c2cn(C3CCCCC3)c3ccccc23)c1` [Compound 361, 1-(((1S,4S)-4-(N-(3-(1-cyclohexyl-1H-indol-3-yl)-3-(m-tolyl)propyl)cyanamido)cyclohexyl)urea salt], the MIC in assay [1] (setting [4]) and in assay [2] was more than 128 µg/mL throughout.

With `Cc1cccc(C(CCOCCCN(C)C)c2cn(C3CCCCC3)c3ccccc23)c1` (stereo not drawn) [Compound 364, 3-(3-(1-cyclohexyl-1H-indol-3-yl)-3-(m-tolyl)propoxy)-N,N-dimethylpropan-1-amine salt], the results for the MIC in assay [1] (setting [4]) and in assay [2] were 8 µg/mL and more than 128 µg/mL, respectively.

For the compound `Cc1cccc(C(CCNCCCO)c2cn(C3CCCCC3)c3ccccc23)c1` (stereo not drawn) [Compound 366, 3-((3-(1-cyclohexyl-1H-indol-3-yl)-3-(m-tolyl)propyl)amino) propan-1-ol], the MIC is 16 µg/mL (≈ 39.5 µM) in assay [1] (setting [4]) and more than 128 µg/mL in assay [2].

`Cc1cccc(C(CCNCCCN2CCCC2)c2cn(C3CCCCC3)c3ccccc23)c1` (stereo not drawn) [Compound 367, 3-(1-cyclohexyl-1H-indol-3-yl)-N-(3-(pyrrolidin-1-yl)propyl)-3-(m-tolyl)propan-1-amine]: the MIC in assay [1] (setting [4]) is 64 µg/mL (≈ 140 µM); in assay [2] it was more than 128 µg/mL.
